Measured values reported in patent US12091684B2, “Platelet-derived mitochondria treatment and method of generating multipotent cells” (Hackensack Meridian Health, Inc., priority 2020, dated 2024).

What was measured:
[1] = target: CXCR4 (Homo sapiens, UniProt P61073); conditions: 30 μM, 4 hours, purified PB-IPC nuclei with labeled mitochondria
Experimental: To determine whether the action of SDF-1/CXCR4 contributed to the penetration of mitochondria into nuclei, a blocking experiment with CXCR4 receptor antagonist AMD3100 was performed. The purified PB-IPC's nuclei were treated with MitoTracker Deep Red-labeled purified mitochondria in the presence or absence of AMD 3100 (30 μM). The equal concentration of solvent DMSO served as a control. After 4 hours of the treatment, nuclei were washed twice with PBS and prepared for flow cytometry.

[2] = tested on: γ-secretase; experiment: DAPT-blocking experiment (CD34 expression by flow cytometry); type: cell-based, human; conditions: PB-IPCs, 10 μM DAPT, 100 μg/mL mitochondria where present, 7-14 days, n=4
Experimental: For a DAPT-blocking experiment, PB-IPCs were treated with 100 μg/mL mitochondria plus 10 μM DAPT (Sigma, Saint Louis, MO, USA, Catalog #D5942) for 7-14 days in non-tissue, culture-treated 24-well plates or Petri dishes with serum-free NutriStem® hPSC XF culture medium (Corning, New York, NY, USA), at 37° C. and 8% CO2. Subsequently, both treated and untreated PB-IPC were collected to examine the expression of CD34 by flow cytometry.

Sequence of CXCR4 (P61073 whole entry): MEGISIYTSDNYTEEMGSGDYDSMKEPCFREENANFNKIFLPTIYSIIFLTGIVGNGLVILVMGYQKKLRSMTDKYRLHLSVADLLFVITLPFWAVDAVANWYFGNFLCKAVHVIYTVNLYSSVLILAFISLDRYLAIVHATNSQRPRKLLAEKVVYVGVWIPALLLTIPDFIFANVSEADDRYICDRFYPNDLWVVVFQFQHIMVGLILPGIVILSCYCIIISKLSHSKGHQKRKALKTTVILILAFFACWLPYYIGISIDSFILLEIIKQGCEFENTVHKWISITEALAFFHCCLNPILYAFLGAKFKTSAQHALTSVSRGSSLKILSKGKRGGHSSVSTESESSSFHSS

SMILES	percentage of MitoTracker Deep Red-positive nuclei [1]	percentage of CD34+ cells [2]
c1cc(CN2CCCNCCNCCCNCC2)ccc1CN1CCCNCCNCCCNCC1 [AMD 3100]	markedly reduced	
C[C@H](NC(=O)Cc1cc(F)cc(F)c1)C(=O)N[C@H](C(=O)OC(C)(C)C)c1ccccc1 [DAPT, N—[N-(3,5-difluorophenacetyl)-L-alanyl]-S-phenylglycine t-butyl ester]		2.59%±0.13%
